We go through 38 compounds from ChEMBL document CHEMBL3507680, “University of Dundee, Gates Library screen for HepG2 cell viability”.

A short description of this data set: Human HepG2 cell viability assay in 384 well format. Format: toxicity, cell-based. The arrangement: dose 125 nL, time 70.5 hour; concentration not given beside the values. Conditions: HepG2 cells, read-out: Inhibition.
On to `CC(Cn1cccn1)n1cnc2cccc(F)c2c1=O` (stereo not drawn), for which the cytotoxicity at 70.5 h is -7.35%.

Take `COCC1CCCCN1C(=O)c1cc(Cn2ccc3ccccc32)[nH]n1` (stereo not drawn): the cytotoxicity at 70.5 h is -2.47%. On to `c1ccc(COc2ccccc2NC2CCOCC2)nc1`, for which the cytotoxicity at 70.5 h is -4.09%.

`CC(C(=O)O)N1CC2(CCC1=O)CCN(CCSc1ccccc1)CC2` (stereo not drawn): the cytotoxicity at 70.5 h is -13.8%.

As to `Cc1ccc(-c2nc(CN3CCOCS3(=O)=O)c(C)o2)cc1`, the cytotoxicity at 70.5 h is -0.637%.

Consider `Cc1nccn1CCN(C)C(=O)C1CCN(C(=O)C2CCCC2)CC1`, for which the cytotoxicity at 70.5 h is 8.88%. The value for `CCN(CC)C(=O)[C@@H]1C[C@@H](N)CN1c1nc(N2CCCC2)nc(C)c1C` was 25.5%.

For the compound `Cc1cnc(N(C)Cc2cnc3ccccc3n2)nc1N(C)C`, the cytotoxicity at 70.5 h is -14.7%. Take `Cn1c(CN2CCC(O)CC2)nnc1C1CCCN(C(=O)C2CNC2)C1` (stereo not drawn): the cytotoxicity at 70.5 h is -5.47%. The value for `Cc1ccc(N2CCN(C(=O)CN3C[C@@H]4CC[C@H]3C4)CC2=O)cc1` was 24.1%; that for `O=S1(=O)COCCN1Cc1ccc(F)c(C(F)(F)F)c1` was -10.2%. The value for `COCCn1ccnc1C1CCN(C(=O)CSc2nnc(C)o2)CC1` was 9.15%. Turning to `O=C(NCCc1csc(-c2ncccn2)n1)c1cnn2c1CCCC2`, the cytotoxicity at 70.5 h was -18.5%. To `CC(C)(C)n1cc(C2=CCN(CCNC(=O)c3ccccc3)CC2)cn1` belongs -5.4%; to `CCCOc1ccc(C(=O)N2C[C@@H](CN3CCCC3)[C@@H](CO)C2)cc1Cl`, 1.78%. The value for `CC(=O)NCC1CCC2(CCN(c3ncnc4oc(C)nc34)CC2)O1` (stereo not drawn) was 21.7%; that for `CN(CCNC(=O)c1cccnc1)S(C)(=O)=O` was -5.32%. The value for `O=C(N1CCOCC1)N1CC[C@@](O)(c2ccccc2)[C@H]2CCCC[C@@H]21` was -1.75%; that for `CN(C)CCC1CCCCN1Cc1cnn(C)c1C1CC1` (stereo not drawn) was 2.52%. Consider `Cc1ccc(C)c(OCc2cc(C(=O)N(C)Cc3nonc3C)no2)c1`, for which the cytotoxicity at 70.5 h is 3.12%. To `CN(C)CC(C)(C)CN1CCC(c2ccnc(-c3cccc(O)c3)c2)C1` (stereo not drawn) belongs -8.34%.

For `Cc1nc2c(C)cccc2cc1C(=O)N1CCC2(CCCNC2)C1` (stereo not drawn), the cytotoxicity at 70.5 h was -11.4%. For the compound `COC(=O)CCCC(=O)N1CCCCC1c1ccc(F)cc1` (stereo not drawn), the cytotoxicity at 70.5 h came to 2.01%.

Turning to `CS(=O)(=O)N1CCCn2nc(CNc3cc(C#N)ccn3)cc2C1`, the cytotoxicity at 70.5 h was -6.16%. To `Cc1cnccc1NCCNC1CCSCC1` belongs -17.3%; to `CC(C)c1cc(C(=O)NCCc2nc3c(s2)CCC3)n(C)n1`, 8.71%. For `COCCN1CCCC2(CCN(c3cc(C)c(C#N)c(C)n3)C2)C1=O` (stereo not drawn), the cytotoxicity at 70.5 h stood at 14.9%. In the case of `COc1ccc(-c2n[nH]cc2CN(C)Cc2nccn2C)c(F)c1`, the cytotoxicity at 70.5 h was -3.33%.

For `CCn1nc(C)cc1C(=O)NCc1cccnc1N(C)C`, the cytotoxicity at 70.5 h was found to be 2.09%. To `Cc1cc(C)c(C#N)c(NCCSc2nncn2C)n1` belongs -6.87%; to `CCCn1cc(-c2cc(C(=O)N(C)C)c3cccc(C)c3n2)cn1`, -7.56%. Take `COc1cccn(Cc2nnc(-c3cccc(F)c3)o2)c1=O`: the cytotoxicity at 70.5 h is -3.37%. In the case of `CN(C)c1cc(N(C)Cc2cc(C(C)(C)C)n[nH]2)ncn1`, the cytotoxicity at 70.5 h is -2.08%.

For the compound `Cc1cnc(C)c(-c2cccc(-c3ccn(CCN4CCCC4)n3)c2)n1`, the cytotoxicity at 70.5 h was 11.2%. The value for `CC(C)n1cnnc1CN(C)Cc1cnc(-c2ccccn2)nc1` was -5.94%; that for `COCC1CCN(S(=O)(=O)N2C[C@H](c3ccccc3)[C@@H](N)C2)CC1` was -1.87%. To `CCc1nnc(CN(C)C[C@@H]2CCCN3CCCC[C@H]23)o1` belongs -3.62%; to `CCCOc1ccc(C(=O)N2CC[C@H]3CC[C@@H](C2)N3)cc1Cl`, -14.3%.
